Substitutions are numbered along the chain they refer to. Where “and” joins values, the source holds several entries; their conditions need not be identical. Equal entries are not always repeated.
How the values were obtained:
Format in all cases: cell-based
[1] = molecular target: T1, hTA1 (Homo sapiens, UniProt Q96RJ0); assay: GloSensor cAMP accumulation assay, concentration response, wild-type hTA1 in transfected HEK293T cells; conditions: for Dose-response curves for asenapine vs endogenous trace amines: log[Compound], replicate values (N=2);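 on all read-outs here: luminescence read after 30 min compound exposure at room temperature in cells preloaded with D-Luciferin, reflecting Gs-driven cAMP rise, efficacy scaled to the maximal β-PEA response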
T1 construct: expressed in transfected cells; host or cells: HEK293T
T1 sequence (Q96RJ0 1-339): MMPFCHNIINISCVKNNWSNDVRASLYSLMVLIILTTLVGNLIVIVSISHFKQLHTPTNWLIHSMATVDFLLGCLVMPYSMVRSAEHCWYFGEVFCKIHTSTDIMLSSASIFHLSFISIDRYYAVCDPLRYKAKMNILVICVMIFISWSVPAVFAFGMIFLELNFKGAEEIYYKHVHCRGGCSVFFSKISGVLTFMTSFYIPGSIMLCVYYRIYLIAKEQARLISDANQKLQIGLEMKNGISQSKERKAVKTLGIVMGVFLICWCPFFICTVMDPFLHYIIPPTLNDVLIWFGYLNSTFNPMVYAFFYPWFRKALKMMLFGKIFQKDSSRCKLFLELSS

[2] = molecular target: T2, hTA1 C13S (Homo sapiens, UniProt Q96RJ0, C13S); assay: GloSensor cAMP accumulation assay, C13S mutant; conditions: for C13S - Normalized Luminescence Counts (N=2): log[Compound], single wells
T2 construct: expressed in transfected cells; host or cells: HEK293T
T2 sequence (Q96RJ0 1-339 C13S): T1 sequence (Q96RJ0 1-339) with C13S

[3] = molecular target: T3, β2AR-Nterm-hTA1-F112^3.41W (CryoEM Construct) (Homo sapiens, UniProt Q96RJ0, F112W); assay: GloSensor cAMP accumulation assay, cryoEM construct;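 further: cells transiently co-transfected with the receptor construct and GloSensor cAMP biosensor, luminescence read after 30 min compound exposure at room temperature in the dark as cAMP accumulation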;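 on Normalized Luminescence Counts (N=2): normalized to the maximum response of β-PEA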
T3 construct: FLAG (N); 10xHis (N); TEV protease site (N); expressed in transfected cells; host or cells: HEK293T
T3 sequence (Q96RJ0 with tags, fused parts or gaps F112W): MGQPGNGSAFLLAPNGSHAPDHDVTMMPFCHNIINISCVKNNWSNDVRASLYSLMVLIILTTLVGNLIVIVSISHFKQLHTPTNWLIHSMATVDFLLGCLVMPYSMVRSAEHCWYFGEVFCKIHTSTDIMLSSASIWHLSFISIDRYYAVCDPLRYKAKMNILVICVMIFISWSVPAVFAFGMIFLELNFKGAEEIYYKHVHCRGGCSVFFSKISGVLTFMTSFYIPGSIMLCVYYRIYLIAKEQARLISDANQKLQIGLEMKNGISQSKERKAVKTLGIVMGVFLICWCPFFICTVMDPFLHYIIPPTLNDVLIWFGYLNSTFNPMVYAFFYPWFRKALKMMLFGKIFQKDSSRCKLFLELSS

[4] = molecular target: T4, hTA1 C96S (Homo sapiens, UniProt Q96RJ0, C96S); assay: GloSensor cAMP accumulation assay, C96S mutant; conditions: log[Compound]
T4 construct: expressed in transfected cells; host or cells: HEK293T
T4 sequence (Q96RJ0 1-339 C96S): T1 sequence (Q96RJ0 1-339) with C96S

[5] = molecular target: T5, hTA1 I290N (Homo sapiens, UniProt Q96RJ0, I290N); assay: GloSensor cAMP accumulation assay, I290N mutant;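 further: cells transiently co-expressing hTA1 and the GloSensor cAMP biosensor, luminescence read 30 min after compound addition at room temperature, efficacy scaled to the maximal β-PEA response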
T5 construct: expressed in transfected cells; host or cells: HEK293T
T5 sequence (Q96RJ0 1-339 I290N): T1 sequence (Q96RJ0 1-339) with I290N

[6] = Cryo EM Construct, mean of each independent experiment (3 replicates)
[7] = hTA1 I290N mutant minus WT average

Compound: NCCc1ccccc1 [β-PEA, β-phenethylamine]
- Emax values, Avg ([1]; WT hTA1, Figure 5B, β-PEA = 100, average of the independent experiments): 100
- Emax values, Mean ([1]; WT hTA1, Figure 5B, β-PEA = 100, each row one independent experiment (3 replicates)): 100
- pEC50 values, Avg ([1]; WT hTA1, average of the two experiments, Figure 2B source data): 7.094
- pEC50 values, Mean ([1]; WT hTA1, each line an independent experiment, 3 replicates, Figure 2B source data): 7.155 and 7.032
- Emax values, Avg ([1]; WT hTA1, β-PEA = 100, average of the two experiments): 100
- Emax values, Mean ([1]; WT hTA1, β-PEA = 100, each line an independent experiment, 3 replicates): 100
- Emax values, Avg ([1]; WT, Avg of the two experiments, β-PEA = 100): 100
- Emax values, Avg ([1]; WT, average of the experiments, β-PEA = 100): 100
- Emax values, Avg ([1]; WT, average of the two experiments): 100
- Emax values, Mean ([1]; WT, mean of each independent experiment (3 replicates), β-PEA = 100): 100
- Emax values, Mean ([1]; WT, mean of one experiment (3 replicates), β-PEA = 100): 100
- Emax values, Mean ([1]; WT, single experiments (3 replicates each), β-PEA = 100): 100
- Dose-response curves for asenapine vs endogenous trace amines ([1]; M = -5): 114.55 and 104.58 and 118.623 and 102.53 and 95.7683 and 107.085
- Dose-response curves for asenapine vs endogenous trace amines ([1]; M = -5.522): 96.3904 and 87.8446 and 97.5922 and 98.0692 and 90.9789 and 92.0588
- Dose-response curves for asenapine vs endogenous trace amines ([1]; M = -6): 88.2006 and 75.1148 and 94.0536 and 103.14 and 88.8658 and 89.805
- Dose-response curves for asenapine vs endogenous trace amines ([1]; M = -6.522): 73.7573 and 64.299 and 91.1383 and 74.7791 and 68.7219 and 73.7461
- Dose-response curves for asenapine vs endogenous trace amines ([1]; M = -7): 70.4636 and 45.5827 and 61.4726 and 66.5619 and 44.258 and 53.6961
- Dose-response curves for asenapine vs endogenous trace amines ([1]; M = -7.522): 36.1467 and 21.3027 and 35.9464 and 26.7905 and 17.9158 and 22.3766
- Dose-response curves for asenapine vs endogenous trace amines ([1]; M = -8): 22.727 and 16.7405 and 21.3472 and 13.3611 and 11.9525 and 11.6238
- Dose-response curves for asenapine vs endogenous trace amines ([1]; M = -8.522): 4.5 and 4.523 and 5.969 and 4.393 and 2.514 and 2.6083
- Dose-response curves for asenapine vs endogenous trace amines ([1]; M = -9): 1.986 and 1.318 and 1.8743 and 1.716 and 1.012 and 1.106
- Dose-response curves for asenapine vs endogenous trace amines ([1]; M = -9.522): -1.063 and -1.33 and -0.4402 and -0.06817 and 0.1666 and -0.4908
- Dose-response curves for asenapine vs endogenous trace amines ([1]; M = -10): -0.596 and -1.264 and -0.5515 and -0.4438 and -0.7725 and -0.6786
- Dose-response curves for asenapine vs endogenous trace amines ([1]; M = -10.522): -1.3749 and -1.931 and -0.6405 and 0.0727 and -0.5847 and -1.101
- Dose-response curves for asenapine vs endogenous trace amines ([1]; M = -11): -0.1286 and -1.241 and 0.2497 and 0.6362 and -0.3499 and -0.7725
- Dose-response curves for asenapine vs endogenous trace amines ([1]; M = -11.522): -0.01735 and -1.575 and -0.7963 and 0.5892 and -0.3969 and -0.256
- Dose-response curves for asenapine vs endogenous trace amines ([1]; M = -12): -1.353 and -1.3749 and -1.286 and 0.02574 and -0.4908 and -0.3029
- Dose-response curves for asenapine vs endogenous trace amines ([1]; M = -12.522): -1.152 and -1.664 and -0.9075 and 0.5892 (2×) and 0.4483
- Span ± SEM (Emax normalized to β-PEA) ([1]; wt hTA1, HEK293T, n=3): 100 ± 2.26
- pEC50 ± SEM ([1]; wt hTA1, HEK293T, n=3): 7.09 ± 0.05
- EC50 ([1]; wt hTA1, HEK293T, n=3, read-out: EC50): 80.6 nM
- Emax ([1]; wt hTA1, relative to β-PEA): 100.0%
- ΔEmax values (each mutant value - WT average) ([2]; C13S): 0
- ΔpEC50 values (each mutant value - WT average) ([2]; C13S): -0.3351 and -0.4017
- Emax values ([2]; C13S, Mean of fit per experiment): 100
- Span ± SEM (Emax normalized to β-PEA) ([2]; C13S, n=2): 100 ± 2.41
- pEC50 ± SEM ([2]; C13S, n=2): 6.73 ± 0.05
- EC50 ([2]; C13S, n=2, read-out: EC50): 188 nM
- pEC50 values, Mean ([2]; hTA1 C13S, mean of 3 replicates, one line per independent experiment): 6.758 and 6.6918
- C13S - Normalized Luminescence Counts (N=2) ([2]; M = -5): 99.2705 and 93.6371 and 125.268 and 108.514 and 91.163 and 111.602
- C13S - Normalized Luminescence Counts (N=2) ([2]; M = -5.522): 84.5018 and 89.7165 and 90.3636 and 93.2337 and 75.9363 and 100.338
- C13S - Normalized Luminescence Counts (N=2) ([2]; M = -6): 78.7162 and 86.7856 and 86.6715 and 80.2383 and 65.7078 and 88.5033
- C13S - Normalized Luminescence Counts (N=2) ([2]; M = -6.522): 64.3281 and 49.293 and 64.0617 and 65.0295 and 54.7831 and 70.7417
- ΔEmax values (each mutant value - WT average), Mean ([3]; Cryo EM Construct minus WT average): 0
- Emax values, Mean [3, 6]: 0.8322
- pEC50 values, Mean [3, 6]: 7.553 and 7.926
- Normalized Luminescence Counts (N=2) ([3]; CryoEM Construct, log[Compound], M = -5, single replicates): 99.4824 and 93.6783 and 105.677 and 107.109
- Span ± SEM (Emax normalized to β-PEA) ([3]; CryoEM Construct, n=2): 100 ± 1.84
- pEC50 ± SEM ([3]; CryoEM Construct, n=2): 7.75 ± 0.04
- EC50 ([3]; CryoEM Construct, n=2, read-out: EC50): 17.4 nM
- Normalized Luminescence Counts ([4]; C96S, M = -5, single replicates (N=2)): 35.6736 and 42.2638 and 54.1262 and 8.922 and 12.7948 and 20.5413
- Normalized Luminescence Counts ([4]; C96S, M = -5.522, single replicates (N=2)): 25.7883 and 20.5161 and 22.4932 and 16.6681 and -2.698 and 8.922
- Normalized Luminescence Counts ([4]; C96S, M = -6, single replicates (N=2)): 12.6079 and 10.6308 and 7.995 and -2.698 (2×) and 5.048
- Normalized Luminescence Counts ([4]; C96S, M = -6.522, single replicates (N=2)): 0.7455 (2×) and 3.382 and 1.175 and -6.571 (2×)
- Normalized Luminescence Counts ([4]; C96S, M = -7, single replicates (N=2)): 0.7455 and -1.232 and -0.5726 and -2.698 (2×) and -6.571
- Normalized Luminescence Counts ([4]; C96S, M = -7.522, single replicates (N=2)): -0.5726 and -1.891 and 0.08646 and -4.6346 (2×) and -6.571
- Normalized Luminescence Counts ([4]; C96S, M = -8, single replicates (N=2)): 2.064 and 0.7455 and -0.5726 and 1.175 and 6.985 and 5.048
- Normalized Luminescence Counts ([4]; C96S, M = -8.522, single replicates (N=2)): 2.723 and -1.232 and -1.891 and 6.985 and 1.175 and 8.922
- Normalized Luminescence Counts ([4]; C96S, M = -9, single replicates (N=2)): -0.5726 and 0.08646 and -1.232 and 10.8582 and 1.175 and -0.7614
- Normalized Luminescence Counts ([4]; C96S, M = -9.522, single replicates (N=2)): 2.064 and -3.209 and -1.232 and -2.698 (2×) and 3.112
- Normalized Luminescence Counts ([4]; C96S, M = -10, single replicates (N=2)): 0.08646 and -0.5726 and -1.232 and -8.508 and -2.698 and -0.7614
- Normalized Luminescence Counts ([4]; C96S, M = -10.522, single replicates (N=2)): 4.7 and -1.232 and -1.891 and -10.4444 and -0.7614 and -2.698
- Normalized Luminescence Counts ([4]; C96S, M = -11, single replicates (N=2)): 2.723 and -0.5726 and 0.7455 and -10.4444 and 3.112 and 1.175
- Normalized Luminescence Counts ([4]; C96S, M = -11.522, single replicates (N=2)): 0.08646 and 2.064 and -2.55 and -10.4444
- Normalized Luminescence Counts ([4]; M = -11.522, single replicates, mutant block above C178S): -0.6791 and -0.9294 and -0.1556 and 1.551 and 0.7492 and 1.23
- Normalized Luminescence Counts ([4]; M = -12, single replicates, mutant block above C178S): -0.6108 and -0.9294 and -0.5425 and 1.07 and 0.8561 and 1.283
- Normalized Luminescence Counts ([4]; M = -12.522, single replicates, mutant block above C178S): -0.7929 and -0.6336 and -1.02 and 1.337 and 1.283 and 0.8561
- Span ± SEM (Emax normalized to β-PEA) ([5]; I290N, n=2): 100 ± 2.5
- pEC50 ± SEM ([5]; I290N, n=2): 7.26 ± 0.06
- EC50 ([5]; I290N, n=2, read-out: EC50): 54.7 nM
- cAMP accumulation response, single replicate values (source data, Supplementary Figure 5) ([5]; hTA1 I290N (N=2), log[Compound], M = -5): 123.698 and 115.527 and 100.651 and 114.899
- ΔEmax values (each mutant value - WT average), Mean [5, 7]: 0
- ΔpEC50 values (each mutant value - WT average), Mean [5, 7]: 0.1524 and 0.1839
- pEC50 values, Mean ([5]; hTA1 I290N mutant, Figure 3B source data, each grid row a separate experiment, 3 replicates): 7.2459 and 7.277
- Emax values, Mean ([5]; hTA1 I290N mutant, β-PEA set to 100, each grid row a separate experiment, 3 replicates): 100

Reference: PMC10762035, “Molecular basis of human trace amine-associated receptor 1 activation” (Nature Communications, 2024)
